Results on one molecule are retold here after patent US20210386730A1 (priority 2020, published 2021).

This data set is described as follows: Solubility of indacaterol maleate and glycopyrrolate. In kind it is physicochemical. As to the method: In a formulation it is necessary to be sure that the active pharmaceutical ingredients (API) are dissolved completely.
0.02% tween-80: […].
pH=3 0.02% tween-80: […], adjust pH to 3 with hydrochloric acid. Other solutions were similarly prepared. The percentages mentioned above are percentages by weight.

With `CCc1cc2c(cc1CC)CC(NC[C@H](O)c1ccc(O)c3[nH]c(=O)ccc13)C2.O=C(O)/C=C\C(=O)O` [Indacaterol Maleate, (R)-5-[2-(5,6-Diethylindan-2-ylamino)-1-hydroxyethyl]-8-hydroxy-1H-quinolin-2-one maleate], the Solubility by setting is: (0.02% tween-80) 29.52 mg/100 ml; (Purified water) 29.95 mg/100 ml; (pH = 3 0.02% tween-80) 32.17 mg/100 ml; (pH = 3 2.5% SBECD solution) 351.46 mg/100 ml; (pH = 3 5% SBECD solution) 539.5 mg/100 ml; (pH = 3 Purified water) 31.21 mg/100 ml. The Solubility runs as follows: (pH = 3.5 0.02% tween-80) 30.8 mg/100 ml; (pH = 3.5 Purified water) 29.97 mg/100 ml; (pH = 4 0.02% tween-80) 30.91 mg/100 ml; (pH = 4 0.5% SBECD solution) 55.523 mg/100 ml; (pH = 4 1% SBECD solution) 161.866 mg/100 ml; (pH = 4 2% SBECD solution) 211.4 mg/100 ml. The Solubility turned out to be 316 mg/100 ml (pH = 4 5% SBECD solution); 30.82 mg/100 ml (pH = 4 Purified water); 30.41 mg/100 ml (pH = 4.5 0.02% tween-80); 30.32 mg/100 ml (pH = 4.5 Purified water); 30.84 mg/100 ml (pH = 5 0.02% tween-80); 28.98 mg/100 ml (pH = 5 Purified water). The “Solubility (in words)” value is recorded as “improved significantly” (cyclodextrin added), “not sufficiently soluble” (in purified water) and “insufficient” (tween 80 added).
